Measurements: patent US20120202288A1, “COMPOSITIONS COMPRISING CYCLIC AMP ENHANCERS AND/OR EP LIGANDS, AND METHODS OF PREPARING AND USING THE SAME” (FATE THERAPEUTICS, INC., priority 2009, published 2012)
Where two headings read alike, the source gives them in different places.

Key:
[1] = test system: hepatic stellate cells; details: cited from earlier work
[2] = test system: dendritic cell (DC); details: ex vivo or in vitro; withdrawal of growth factors or ceramide; cited from earlier work
[3] = test system: murine embryonic stem cell; details: cited from earlier work
[4] = test system: human umbilical cord-derived CD34+ cells; details: apoptosis induced by nitric oxide (NO) or serum deprivation; cited from earlier work
[5] = test system: transplanted stem cells; details: injection shortly after marrow cell graft; cited from earlier work
[6] = Stability of 16,16-dimethyl PGE2 formulation, storage at −80° C.; type: physicochemical; details: for Assay (% LC): 10 mM in DMSO, 2 ml glass vial; for Purity (%): stability
Description: (§1) 16,16-dimethyl PGE2 and its related substances were separated on a Phenomenex, Synergi Hydro RP 4μ HPLC column with gradient elution conditions and detected at 205 nm. The assay of 16,16-dimethyl PGE2 was determined by comparing the 16,16-dimethyl PGE2 peak area of the test samples with that of a reference standard of known concentration and purity. The levels of the impurities and degradation products were determined from the peak area ratio of each individual impurity to the total peak area of the 16,16-dimethyl PGE2 and all impurities and degradation products. The identify of 16,16-dimethyl PGE2 was confirmed by comparing the retention time of the main peak of the test sample against that in the reference standard.
(§2) Stability tests were performed on formulations of 16,16-dimethyl PGE2 stored at either −80° C. or −20° C. for up to six months. These clinical formulations were composed of 10 mM 16,16-dimethyl PGE2 in […] DMSO, and were stored in a 2 ml Type I clear glass vial with a 13 mm West 4432/50 Teflon coated stopper. The results are shown in Tables 3 (−80° C.) and 4 (−20° C.) below.

[7] = test system: hematopoietic stem cells (HSCs); assay: Ex vivo treatment of HSCs prior to transplant, engraftment of donor HSCs; type: in vivo; details: bone marrow cells incubated with 10 μM at 4° C. for one hour, then transplanted into allogeneic subject
Description: Bone marrow cells containing HSCs are obtained directly by removal from the hip of a donor subject using a needle and syringe. The heterogeneous mixture of bone marrow cells is transferred to two separate tissue culture flasks, and a suitable growth medium is provided.
262 μl of a 10 mM solution of 16,16-dimethyl PGE2 in DMSO is added to the cells in the first tissue culture flask, to a final working concentration of 10 μM of 16,16-dimethyl PGE2. The same amount of DMSO without agent is added to the second flask as a control, and the cells in both flasks are incubated at 4° C. (e.g., in an ice bath) for one hour. The 16,16-dimethyl PGE2 is at least 90% pure as measured by HPLC, and is produced by good manufacturing practice (GMP).
After incubation of the HSCs in the ice bath, the cells from each flask are administered to separate, but otherwise genetically identical subjects. These subjects are both allogeneic to the donor cells. The subjects are then observed for engraftment of the donor HSCs, using markers that are specific for the donor cells.

[8] = Stability of 16,16-dimethyl PGE2 formulation, storage at −20° C.; type: physicochemical; details: for Assay (% LC): 10 mM in DMSO, 2 ml glass vial; for Purity (%): stability
Description: as §1, §2

[9] = cited from earlier work

## CCCCC[C@H](O)/C=C/[C@H]1[C@H](O)CC(=O)[C@@H]1C/C=C\CCCC(=O)O [PGE2, Prostaglandin E2]
[1]
  mitogenesis of hepatic stellate cells: inhibits the mitogenesis
[2]
  protection of DC against apoptosis: protects DC
[3]
  amplification of multipotent progenitors: cause amplification of multipotent progenitors

## O[C@@H]1[C@@H]2OP(O)(=S)OC[C@H]2O[C@H]1n1cnc2cc(Cl)c(Cl)cc21 (stereo partly drawn) [BIMPS, sp-5,6-DCl-BIMPS]
[4]
  survival of CD34+ cells: promote survival

## CC(C)NCC(O)c1ccc(O)c(O)c1 (stereo not drawn) [isoproterenol]
[5]
  entry of transplanted stem cells into S phase: triggers the transplanted stem cells into entering S phase

## CCCCC(C)(C)[C@H](O)/C=C/[C@H]1[C@H](O)CC(=O)[C@@H]1C/C=C\CCCC(=O)O [16,16-dimethyl PGE2]
[6]; 1 Month
  Assay (% LC): 98.5 % LC
  Product Appearance: conforms
  Total Related Substances (%): 5.33%
  pH: 4.8
  Purity (%): 94.7%
[6]; 2 Months
  Assay (% LC): 97.7 % LC
  Product Appearance: conforms
  Total Related Substances (%): 5.51%
  pH: 4.7
  Purity (%): 94.5%
[6]; 3 Months
  Assay (% LC): 98.5 % LC
  Product Appearance: conforms
  Total Related Substances (%): 5.35%
  pH: 4.8
  Purity (%): 94.7%
[6]; 6 Months
  Assay (% LC): 98.6 % LC
  Product Appearance: conforms
  Total Related Substances (%): 5.51%
  pH: 4.7
  Purity (%): 94.5%
[6]; Time Zero
  Assay (% LC): 98.1 % LC
  Product Appearance: conforms
  Total Related Substances (%): 5.52%
  pH: 4.5
  Purity (%): 94.5%
[7]
  number of engrafted HSC donor cells versus control-treated cells: significantly greater number of engrafted HSC donor cells
[8]; 1 Month
  Assay (% LC): 98.7 % LC
  Product Appearance: conforms
  Total Related Substances (%): 5.22%
  pH: 4.8
  Purity (%): 94.8%
[8]; 2 Months
  Assay (% LC): 97.4 % LC
  Product Appearance: conforms
  Total Related Substances (%): 5.52%
  pH: 4.7
  Purity (%): 94.5%
[8]; 3 Months
  Assay (% LC): 98.8 % LC
  Product Appearance: conforms
  Total Related Substances (%): 5.54%
  pH: 4.6
  Purity (%): 94.5%
[8]; 6 Months
  Assay (% LC): 97.5 % LC
  Product Appearance: conforms
  Total Related Substances (%): 5.95%
  pH: 4.6
  Purity (%): 94.0%
[8]; Time Zero
  Assay (% LC): 98.1 % LC
  Product Appearance: conforms
  Total Related Substances (%): 5.52%
  pH: 4.5
  Purity (%): 94.5%

## CCCC[C@H](C)C[C@H](O)/C=C/[C@H]1[C@H](O)CC(=O)[C@@H]1CC(=O)C1CCC(C(=O)O)CC1 (stereo partly drawn) [ONO-DI-004]
[9]; in vivo
  effect on core temperature (Tc): increase the core temperature (Tc) in a dose-dependent manner

## CCCC(=O)Nc1ncnc2c1ncn2[C@@H]1O[C@@H]2COP(=O)(O)O[C@H]2[C@H]1OC(=O)CCC [dibutyryl-cAMP, dibutyryl cyclic adenosine 3′,5′-monophosphate]
[5]
  entry of transplanted stem cells into S phase: triggers the transplanted stem cells into entering S phase
[4]
  survival of CD34+ cells: promote survival

## CCCCC[C@@H](/C=C/[C@H]1[C@H](OC)CC(=O)[C@@H]1C/C=C\CCCC(=O)O)OC [ONO-AE-248]
[9]; 20 nmol
  effect on core temperature (Tc): increased the Tc
